Laboratory results taken from patent US7427590B2, “Neurothrophic components of the ADNF I complex” (The United States of America as represented by the …, priority 2001, dated 2008).
Entries after “also recorded” stand apart in the source; their conditions may differ. Like-named read-outs stand apart in the source and are kept apart here. Non-standard residues stand in square brackets, D forms with d. Residues, ends and D or L forms follow the SMILES beside them. *: point of attachment. Sta = CC(C)C[C@H](N)[C@@H](O)CC(=O)O; Isovaleryl = CC(C)CC(=O)*

Tests used:
[1] = tested on: 14 kDa purified ADNF I complex; format: cell-based; settings: pre-treatment of ADNF I, 1 μM TTX; for Effect on survival-promoting peak of component I (10^−12 dilution) / Effect on survival-promoting peak of component III (10^−5 dilution): 1 μM pepstatin A, 10 μg/ml E-64 or 0.1 mM subtilisin V inhibitor; for Effect on survival-promoting peak of component II (10^−8 dilution): 1 μM pepstatin A or 10 μg/ml E-64
[2] = tested on: dissociated cerebral cortical cultures; format: cell-based, rat
[3] = tested on: component II of the ADNF I complex; experiment: Blockade of component II protease activity in cell-free protease assay; format: biochemical; settings: 10 μl of pepstatin stock (1 mg/ml methanol, diluted 1:100)
Protocol: FIG. 28. A time course of component II (see FIGS. 26 and 27) in a cell-free protease assay using Bz-Arg-Gly-Phe-Phe-Pro-MβNA, HCl (Cathepsin D substrate). The conditions of the assay are as follows: 10 μl of substrate (5 mg dissolved in 100 μl of DMSO (dimethyl sulfoxide), diluted to 1 ml of water), 10 μl of 10 mM CaCl2; 50 μl of component II (10^−8 dilution of the preparation characterized in FIGS. 26 and 27); and 30 μl of buffer (0.5 M dibasic phosphate, pH 7.8). For this assay, buffer, enzyme, calcium were added to 96 well culture trays. Based on glycoprotein alpha-1 acid standards on NCHO capillary, the optimum protease activity is observed at 1 fM amounts of components II.
FIG. 29. […] In culture wells treated with pepstatin, 10 μl of the stock solution (1 mg dissolved in 1 ml of methanol, diluted 1:100 with water) was added. In control wells, an addition 10 ul of methanol/water (1:100 dilution in water) alone was added. Fluorescence changes indicative of peptide subtract cleavage were monitored as described in FIG. 28.

C[C@H](NC(=O)OC(C)(C)C)C(=O)N1CCC[C@H]1C(=O)N[C@@H](Cc1ccccc1)C(=O)NOC(=O)c1ccc(Cl)cc1 [subtilisin V inhibitor, Boc-Ala-Pro-Phe-NHO-Bz-pCl]
Effect on survival-promoting peak of component I (10^−12 dilution) [1]: enhanced
Effect on survival-promoting peak of component III (10^−5 dilution) [1]: enhanced

NNSTTYAPISANVSTALGSTAALPTAAGPV
Another peak of activity (concentration) [2]: 10^−8 M
Survival-promoting activity of digest peptide fractions (neuronal cell counts) [2]: Significant increases in neuronal cell counts

CC(C)CC(=O)N[C@H](C(=O)N[C@H](C(=O)N[C@@H](CC(C)C)[C@@H](O)CC(=O)N[C@@H](C)C(=O)N[C@@H](CC(C)C)[C@@H](O)CC(=O)O)C(C)C)C(C)C [Pepstatin A] (Isovaleryl-VV[Sta]A[Sta]-OH)
Effect on survival-promoting peak of component II (10^−8 dilution) [1]: prevented
Effect on survival-promoting peak of component II (10^−8 dilution) ([1]; listed as pepstatin A): blocked
Effect on survival-promoting peak of component II (10^−8 dilution) ([1]; listed as peptstatin A): inhibited
Effect on survival-promoting peak of component I (10^−12 dilution) [1]: small decrease
Effect on survival-promoting peak of component III (10^−5 dilution) [1]: not affected
Effect on component II-mediated increases in protease activity [3]: prevent the component II-mediated increases in protease activity

CC(C)C[C@H](NC(=O)[C@H]1O[C@@H]1C(=O)O)C(=O)NCCCCN=C(N)N [E-64]
Effect on survival-promoting peak of component II (10^−8 dilution) [1]: not diminished
Effect on survival-promoting peak of component I (10^−12 dilution) [1]: inhibited; also recorded: prevented; also recorded: blocked
Effect on survival-promoting peak of component III (10^−5 dilution) [1]: inhibited; also recorded: prevented; also recorded: blocked

SESSGTSELLTR
Survival-promoting activity of digest peptide fractions (neuronal cell counts) [2]: Significant increases in neuronal cell counts

GPTADITLTK
Survival-promoting activity of digest peptide fractions (neuronal cell counts) [2]: Significant increases in neuronal cell counts
